Each compound was assayed on HCT116 colorectal cancer cells (assay: Cisplatin sensitization assay (96 h cell viability MTS)). Conditions: 96 h MTS, compound plus Cisplatin.
Assay type: cell-based
In short: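 Full-matrix combination: compound × cisplatin, 2-fold dilutions from 10 μM top final, co-added; 96 h, 37° C, 5% CO2; MTS read-out after 1 h.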
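Also: compound concentration needed to lower the Cisplatin-alone IC50 by a set fold.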

| SMILES | Cisplatin Sensitization Assay |
| --- | --- |
| Nc1nn2cc(F)cnc2c1C(=O)Nc1cncc(F)c1N1CCN(C(=O)C2CN3CCC2CC3)CC1 (stereo not shown) [I-N-130, 2-amino-6-fluoro-N-(5-fluoro-4-(4-(quinuclidine-3-carbonyl)piperazin-1-yl)pyridin-3-yl)pyrazolo[1,5-a]pyrimidine-3-carboxamide] | ++ (Compounds with a Cisplatin sensitization value >0.02 μM but <0.2 μM are marked with “++.”) |
| CN1CC[C@@H](OC2CCN(c3ccncc3NC(=O)c3c(N)nn4cc(F)cnc34)CC2)C1 [I-N-131] | +++ (Compounds with a Cisplatin sensitization value of <0.02 μM are marked with “+++.”) |
| CN1CC[C@@H](OC2CCN(c3c(F)cncc3NC(=O)c3c(N)nn4cc(F)cnc34)CC2)C1 [I-N-132, (R)-2-amino-6-fluoro-N-(5-fluoro-4-(4-((1-methylpyrrolidin-3-yl)oxy)piperidin-1-yl)pyridin-3-yl)pyrazolo[1,5-a]pyrimidine-3-carboxamide] | +++ (Compounds with a Cisplatin sensitization value of <0.02 μM are marked with “+++.”) |
| CN1CCN(c2ccncc2NC(=O)c2c(N)nn3cc(F)cnc23)CC12CCOCC2 [I-N-133, 2-amino-6-fluoro-N-(4-(1-methyl-9-oxa-1,4-diazaspiro[5.5]undecan-4-yl)pyridin-3-yl)pyrazolo[1,5-a]pyrimidine-3-carboxamide] | ++ (Compounds with a Cisplatin sensitization value >0.02 μM but <0.2 μM are marked with “++.”) |
| Nc1nn2cc(F)cnc2c1C(=O)Nc1cncc(F)c1N1CCN(C(=O)C23CCN(CC2)CC3)CC1 [I-N-134, 2-amino-6-fluoro-N-(5-fluoro-4-(4-(quinuclidine-4-carbonyl)piperazin-1-yl)pyridin-3-yl)pyrazolo[1,5-a]pyrimidine-3-carboxamide] | + (Compounds with a Cisplatin sensitization value >0.2 μM but <5 μM are marked with “+.”) |
| Nc1nn2cc(F)cnc2c1C(=O)Nc1cncc(F)c1N1CCN2CCOC[C@H]2C1 [I-N-135, (R)-2-amino-6-fluoro-N-(5-fluoro-4-(hexahydropyrazino[2,1-c][1,4]oxazin-8(1H)-yl)pyridin-3-yl)pyrazolo[1,5-a]pyrimidine-3-carboxamide] | +++ (Compounds with a Cisplatin sensitization value of <0.02 μM are marked with “+++.”) |
| Nc1nn2cc(F)cnc2c1C(=O)Nc1cnccc1N1CCN2C(=O)COCC2C1 (stereo not shown) [I-N-136, 2-amino-6-fluoro-N-(4-(4-oxohexahydropyrazino[2,1-c][1,4]oxazin-8(1H)-yl)pyridin-3-yl)pyrazolo[1,5-a]pyrimidine-3-carboxamide] | ++ (Compounds with a Cisplatin sensitization value >0.02 μM but <0.2 μM are marked with “++.”) |
| Nc1nn2cc(F)cnc2c1C(=O)Nc1cncc(F)c1N1CCN2CCOC[C@@H]2C1 [I-N-137, (S)-2-amino-6-fluoro-N-(5-fluoro-4-(hexahydropyrazino[2,1-c][1,4]oxazin-8(1H)-yl)pyridin-3-yl)pyrazolo[1,5-a]pyrimidine-3-carboxamide] | ++ (Compounds with a Cisplatin sensitization value >0.02 μM but <0.2 μM are marked with “++.”) |
| CN1CCN(c2c(F)cncc2NC(=O)c2c(N)nn3cc(C(C)(C)C#N)cnc23)CC1 [I-N-138, 2-amino-6-(2-cyanopropan-2-yl)-N-(5-fluoro-4-(4-methylpiperazin-1-yl)pyridin-3-yl)pyrazolo[1,5-a]pyrimidine-3-carboxamide] | ++ (Compounds with a Cisplatin sensitization value >0.02 μM but <0.2 μM are marked with “++.”) |
| CC(C)(O)CN1CCN(c2c(F)cncc2NC(=O)c2c(N)nn3cc(F)cnc23)CC1 [I-N-139, 2-amino-6-fluoro-N-(5-fluoro-4-(4-(2-hydroxy-2-methylpropyl)piperazin-1-yl)pyridin-3-yl)pyrazolo[1,5-a]pyrimidine-3-carboxamide] | +++ (Compounds with a Cisplatin sensitization value of <0.02 μM are marked with “+++.”) |
| CN1CCN(C(=O)N2CCN(c3c(F)cncc3NC(=O)c3c(N)nn4cc(F)cnc34)CC2)CC1 [I-N-140, 2-amino-6-fluoro-N-(5-fluoro-4-(4-(4-methylpiperazine-1-carbonyl)piperazin-1-yl)pyridin-3-yl)pyrazolo[1,5-a]pyrimidine-3-carboxamide] | +++ (Compounds with a Cisplatin sensitization value of <0.02 μM are marked with “+++.”) |
| Nc1nn2cc(F)cnc2c1C(=O)Nc1cnccc1N1CCOCC1 [I-N-141, 2-amino-6-fluoro-N-(4-morpholinopyridin-3-yl)pyrazolo[1,5-a]pyrimidine-3-carboxamide] | +++ (Compounds with a Cisplatin sensitization value of <0.02 μM are marked with “+++.”) |
| CC(C)(C#N)c1cnc2c(C(=O)Nc3cnccc3N3CCN(C4COC4)CC3)c(N)nn2c1 [I-N-142, 2-amino-6-(2-cyanopropan-2-yl)-N-(4-(4-(oxetan-3-yl)piperazin-1-yl)pyridin-3-yl)pyrazolo[1,5-a]pyrimidine-3-carboxamide] | ++ (Compounds with a Cisplatin sensitization value >0.02 μM but <0.2 μM are marked with “++.”) |
| CC(C#N)c1cnc2c(C(=O)Nc3cnccc3N3CCN(C4COC4)CC3)c(N)nn2c1 (stereo not shown) [I-N-143, 2-amino-6-(1-cyanoethyl)-N-(4-(4-(oxetan-3-yl)piperazin-1-yl)pyridin-3-yl)pyrazolo[1,5-a]pyrimidine-3-carboxamide] | ++ (Compounds with a Cisplatin sensitization value >0.02 μM but <0.2 μM are marked with “++.”) |
| CC(C)(C#N)c1cnc2c(C(=O)Nc3cncc(F)c3N3CCN(C4COC4)CC3)c(N)nn2c1 [I-N-144] | +++ (Compounds with a Cisplatin sensitization value of <0.02 μM are marked with “+++.”) |
| CN(C)S(=O)(=O)C1CCN(c2c(F)cncc2NC(=O)c2c(N)nn3cc(F)cnc23)CC1 [I-N-146, 2-amino-N-(4-(4-(N,N-dimethylsulfamoyl)piperidin-1-yl)-5-fluoropyridin-3-yl)-6-fluoropyrazolo[1,5-a]pyrimidine-3-carboxamide] | +++ (Compounds with a Cisplatin sensitization value of <0.02 μM are marked with “+++.”) |
| Nc1nn2cc(F)cnc2c1C(=O)Nc1cncc(F)c1N1CCC(N2CCCC2=O)CC1 [I-N-147, 2-amino-6-fluoro-N-(5-fluoro-4-(4-(2-oxopyrrolidin-1-yl)piperidin-1-yl)pyridin-3-yl)pyrazolo[1,5-a]pyrimidine-3-carboxamide] | +++ (Compounds with a Cisplatin sensitization value of <0.02 μM are marked with “+++.”) |
| CN1CCC(N(C)S(=O)(=O)C2CCN(c3c(F)cncc3NC(=O)c3c(N)nn4cc(F)cnc34)CC2)CC1 [I-N-148, 2-amino-6-fluoro-N-(5-fluoro-4-(4-(N-methyl-N-(1-methylpiperidin-4-yl)sulfamoyl)piperidin-1-yl)pyridin-3-yl)pyrazolo[1,5-a]pyrimidine-3-carboxamide] | +++ (Compounds with a Cisplatin sensitization value of <0.02 μM are marked with “+++.”) |
| Nc1nn2cc(F)cnc2c1C(=O)Nc1cncc(F)c1N1CCC(CN2CCOCC2)CC1 [I-N-149, 2-amino-6-fluoro-N-(5-fluoro-4-(4-(morpholinomethyl)piperidin-1-yl)pyridin-3-yl)pyrazolo[1,5-a]pyrimidine-3-carboxamide] | +++ (Compounds with a Cisplatin sensitization value of <0.02 μM are marked with “+++.”) |
| CN1CCN(CC2CCN(c3c(F)cncc3NC(=O)c3c(N)nn4cc(F)cnc34)CC2)CC1 [I-N-150, 2-amino-6-fluoro-N-(5-fluoro-4-(4-((4-methylpiperazin-1-yl)methyl)piperidin-1-yl)pyridin-3-yl)pyrazolo[1,5-a]pyrimidine-3-carboxamide] | +++ (Compounds with a Cisplatin sensitization value of <0.02 μM are marked with “+++.”) |
| CN1CCN(C2CCN(c3c(F)cncc3NC(=O)c3c(N)nn4cc(F)cnc34)CC2)C(=O)C1 [I-N-151, 2-amino-6-fluoro-N-(5-fluoro-4-(4-(4-methyl-2-oxopiperazin-1-yl)piperidin-1-yl)pyridin-3-yl)pyrazolo[1,5-a]pyrimidine-3-carboxamide] | + (Compounds with a Cisplatin sensitization value >0.2 μM but <5 μM are marked with “+.”) |
| Nc1nn2cc(F)cnc2c1C(=O)Nc1cnccc1N1CCCCC1 [I-N-152, 2-amino-6-fluoro-N-(4-(piperidin-1-yl)pyridin-3-yl)pyrazolo[1,5-a]pyrimidine-3-carboxamide] | +++ (Compounds with a Cisplatin sensitization value of <0.02 μM are marked with “+++.”) |
| CN(C)CC(=O)N1CCN(c2c(F)cncc2NC(=O)c2c(N)nn3cc(F)cnc23)CC1 [I-N-153, 2-amino-N-(4-(4-(2-(dimethylamino)acetyl)piperazin-1-yl)-5-fluoropyridin-3-yl)-6-fluoropyrazolo[1,5-a]pyrimidine-3-carboxamide] | ++ (Compounds with a Cisplatin sensitization value >0.02 μM but <0.2 μM are marked with “++.”) |
| CN1CCC(OC2CCN(c3ccncc3NC(=O)c3c(N)nn4cc(F)cnc34)CC2)CC1 [I-N-154, 2-amino-6-fluoro-N-(4-(4-((1-methylpiperidin-4-yl)oxy)piperidin-1-yl)pyridin-3-yl)pyrazolo[1,5-a]pyrimidine-3-carboxamide] | +++ (Compounds with a Cisplatin sensitization value of <0.02 μM are marked with “+++.”) |
| Nc1nn2cc(F)cnc2c1C(=O)Nc1cncc(F)c1N1CCC(S(=O)(=O)N2CCOCC2)CC1 [I-N-155, 2-amino-6-fluoro-N-(5-fluoro-4-(4-(morpholinosulfonyl)piperidin-1-yl)pyridin-3-yl)pyrazolo[1,5-a]pyrimidine-3-carboxamide] | +++ (Compounds with a Cisplatin sensitization value of <0.02 μM are marked with “+++.”) |

— US10787452B2 (Vertex Pharmaceuticals Incorporated, priority 2012, dated 2020)
